Where “and” joins values, the source holds several entries; their conditions need not be identical. Equal entries are not always repeated. Structures can show the parent of a compound that is named as a salt.

Here are results for one molecule from patent publication US20250109127A1, “METHODS OF USE OF PHENOXYPROPYLAMINE COMPOUNDS TO TREAT DEPRESSION” (Minerva Neurosciences, Inc., priority 2013, published 2025).

In one assay the target is T1, 5-HT1A (Homo sapiens, UniProt P08908).
T1 sequence (P08908 1-422): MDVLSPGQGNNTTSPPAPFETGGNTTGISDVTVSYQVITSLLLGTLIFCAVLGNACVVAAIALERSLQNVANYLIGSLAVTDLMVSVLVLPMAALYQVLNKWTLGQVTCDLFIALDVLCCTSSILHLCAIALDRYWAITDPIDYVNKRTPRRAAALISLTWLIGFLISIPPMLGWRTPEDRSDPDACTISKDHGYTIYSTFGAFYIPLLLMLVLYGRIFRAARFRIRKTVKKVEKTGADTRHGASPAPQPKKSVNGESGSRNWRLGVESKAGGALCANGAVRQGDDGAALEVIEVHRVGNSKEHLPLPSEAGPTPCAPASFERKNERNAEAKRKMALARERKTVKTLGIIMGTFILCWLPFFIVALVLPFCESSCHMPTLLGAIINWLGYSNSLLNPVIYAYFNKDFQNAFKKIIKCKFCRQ
In words: Receptor binding, 5-HT1A.

Assay [1] concerns HVA release in the rat prefrontal cortex. Briefly: Microdialysis: HVA release in prefrontal cortex after I.P. administration. The conditions noted are these: for HVA (% of respective basal), individual animal: 0.1 mg/kg I.P., c2-c9 = R#13,14,20,19,25,26,31,32; for HVA (% of respective basal), individual animal / HVA release, individual animals: hydrochloride; for HVA release, MEAN / HVA release, individual animals: 0.3 mg/kg I.P.; for HVA release, MEAN: n = 8; for HVA release, individual animals: one column per animal R#11,12,18,23,29,30,17,24. It counts as in vivo. The procedure:
The aim of the study was to evaluate, using microdialysis, the effects of an intraperitoneal (I.P.) administration in rats of three different doses of SON-117 on dopamine and its metabolites, serotonin and its metabolite (5-HIAA), and norepinephrine levels in prefrontal cortex.
Thirty-two adult male Wistar rats were used for the whole study (4 groups of eight animals planned for the study, Table 1).
Surgery was performed on rats weighing about 300 g at the beginning of the experiments. Rats were anaesthetized with Ketamine (50 mg/kg) & Xylazine (15 mg/kg) by intramuscular administration. The animals were placed in a stereotaxic apparatus in the flat-skull position at a constant setting of −3.3 mm between ear bars and the incisor bar. The animals were treated with a local anesthesic (xylocaine 1%, Astra Zeneca) and an analgesic (Temgesic, from Schering Plough, 0.05 mg/kg, s.c.). A rostrocaudal midline incision was made with a lancet to expose the dorsal skull surface. The “stereotaxic zero” was defined by the Bregma in accordance with Paxinos and Watson's atlas (1986). A hole was drilled in the skull with a drill and the meninges were pierced with a sterile needle to implant a CMA12 guide cannula which later received the dialysis probe.
Coordinates used for implanting guide cannula in prefrontal cortex from Bregma were anteroposterior 3.7 mm, mediolateral 0.8 mm, and dorsoventral −2 mm (top of the probe was at −5 mm). The guide cannula was fixed to the skull with two stainless steel screws (1.88 mm outside diameter) anchored. An application of dental cement was added. A plastic collar allowed each animal to be tethered to a Swivel assembly of the CMA 120 awake animal system. Following surgery, rats were kept in individual cages and allowed to recover for a minimum of 3-5 days before the experimentation. The rats were handled and put in plastic bowl for 10 min at least every day to habituate the animals to their new environment for the dialysis. An I.P. administration with saline was also performed every day.
Dialysis probes (CMA12/3 mm, membrane, 20 kD cut-off, Carnegie Medicine, Stockholm, Sweden), were carefully washed before inserting into the guide cannula. The wash was performed with the artificial cerebrospinal fluid (aCSF) medium (NaCl 147 mM, KCl 2.7 mM, CaCl2 1.2 mM, MgCl2 0.85 mM) at room temperature. The dialysis system was then equilibrated at 20° C. at a perfusion rate of 1 μl/min with a Carnegie pump (CMA100). All catheters (FEP tubing, internal volume of 1.2 μl/10 cm, and tubing adaptors) used for microdialysis were treated in the same conditions.
The probes duly prepared were inserted into the guide cannula and the CMA120 Swivel assembly secured to the animal using a plastic collar. Flow through the dialysis probe with aCSF was maintained at a rate of 1 μl/min during the whole experimentation. The first four fractions (corresponding to 2 hours) were discarded to avoid the effects of parenchymal disturbance and to ensure that an approximate steady-state level was reached. Fractions were then collected over a period of 8.5 h during which time the animals remained quiet. The dialysates were automatically collected with an autosampler (microfraction collector CMA 140, Carnegie Medicin) and stored at −80° C. until analysis. […] Perfusion was then maintained for 7 hours with aCSF. The dialysates (30 μl) were collected into 300 μl vials, transferred into dry ice and then kept frozen (−80° C.) until analysis. Frozen samples were shipped to a partner for analysis. At the end of the microdialysis study, a PBS with colored ink was perfused through the probe in order to visualize the dialyzed area.
Catecholamine assay: Concentrations of dopamine, DOPAC, HVA, 5-HIAA, 5-HT, and norepinephrin were determined for each sample by HPLC coupled with electrochemical detection.

Take `Cc1nnc(-c2cc3c(OC[C@@H](O)CN4CCC(c5ccc(Cl)c(Cl)c5)CC4)cccc3o2)o1` [SON-117, (S)-1-(4-(3,4-dichlorophenyl)piperidino)-3-(2-(5-methyl-1,3,4-oxadiazol-2-yl)benzo(b)furan-4-yloxy)-2-propanol hydrochloride]: the “affinity, 5-HT1A receptor binding” value at 5-HT1A is “high affinity”. Moreover, the “HVA (% of respective basal), individual animal” value (“HVA (% of respective basal)” below) in assay [1] (T30-T1 h) was 116.26 % of respective basal and 107.34 % of respective basal and 108.66 % of respective basal and 130.85 % of respective basal and 120.36 % of respective basal and 141.88 % of respective basal and 123.41 % of respective basal and 95.76 % of respective basal; in assay [1] (T1 h 30-T2 h), 97.75 % of respective basal and 109.52 % of respective basal and 89.93 % of respective basal and 170.371 % of respective basal and 123.81 % of respective basal and 97.71 % of respective basal and 126.7 % of respective basal and 80.99 % of respective basal; in assay [1] (T1 h-T1 h 30), 124.25 % of respective basal and 162.58 % of respective basal and 98.567 % of respective basal and 241.96 % of respective basal and 130.93 % of respective basal and 153.68 % of respective basal and 123.58 % of respective basal and 80.09 % of respective basal; in assay [1] (T2 h 30-T3 h), 88.46 % of respective basal and 123.19 % of respective basal and 75.76 % of respective basal and 151.82 % of respective basal and 149.48 % of respective basal and 157.13 % of respective basal and 121.53 % of respective basal and 21.68 % of respective basal; in assay [1] (T2 h-T2 h 30) it was 83.46 % of respective basal and 121.21 % of respective basal and 80.97 % of respective basal and 145.084 % of respective basal and 132.39 % of respective basal and 106.30 % of respective basal and 139.18 % of respective basal and 53.45 % of respective basal; in assay [1] (T3 h 30-T4 h), 94.31 % of respective basal and 116.57 % of respective basal and 55.89 % of respective basal and 152.08 % of respective basal and 193.52 % of respective basal and 154.95 % of respective basal and 123.32 % of respective basal and 16.37 % of respective basal. In addition, the “HVA (% of respective basal)” value was 135.42 % of respective basal and 99.88 % of respective basal and 73.47 % of respective basal and 137.35 % of respective basal and 137.07 % of respective basal and 115.93 % of respective basal and 133.06 % of respective basal and 20.75 % of respective basal in assay [1] (T3 h-T3 h 30); 128.74 % of respective basal and 102.18 % of respective basal and 100.29 % of respective basal and 40.6 % of respective basal and 130.76 % of respective basal and 136.09 % of respective basal and 114.46 % of respective basal and 68.31 % of respective basal in assay [1] (T4 h 30-T5 h); 149.58 % of respective basal and 107.72 % of respective basal and 55.17 % of respective basal and 173.59 % of respective basal and 155.95 % of respective basal and 149.97 % of respective basal and 148.42 % of respective basal and 76.98 % of respective basal in assay [1] (T4 h-T4 h 30); 146.23 % of respective basal and 127.63 % of respective basal and 35.72 % of respective basal and 136.22 % of respective basal and 116.99 % of respective basal and 123.45 % of respective basal and 128.36 % of respective basal and 65.12 % of respective basal in assay [1] (T5 h 30-T6 h); 143.02 % of respective basal and 149.35 % of respective basal and 36.52 % of respective basal and 131.08 % of respective basal and 120.77 % of respective basal and 117.84 % of respective basal and 126.17 % of respective basal and 77.12 % of respective basal in assay [1] (T5 h-T5 h 30); 155.64 % of respective basal and 142.57 % of respective basal and 54.30 % of respective basal and 131.80 % of respective basal in assay [1] (T6 h 30-T7 h). Besides, in assay [1] (T6 h-T6 h 30), the “HVA (% of respective basal)” value is 149.66 % of respective basal and 147.03 % of respective basal and 11.88 % of respective basal and 133.32 % of respective basal and 118.76 % of respective basal and 122.29 % of respective basal and 121.40 % of respective basal and 66.42 % of respective basal. Moreover, the “HVA release, MEAN” value in assay [1] (T0-T30 min) was 107.04 % of respective basal; in assay [1] (T30-T1 h) it was 94.37 % of respective basal; in assay [1] (T1 h 30-T2 h), 85.59 % of respective basal; in assay [1] (T1 h-T1 h 30), 120.85 % of respective basal; in assay [1] (T2 h 30-T3 h) it was 107.95 % of respective basal; in assay [1] (T2 h-T2 h 30) it was 85.33 % of respective basal. For the same molecule, the “HVA release, individual animals” value in assay [1] (T30-T1 h) is 76.21 % of respective basal and 55.15 % of respective basal and 89.64 % of respective basal and 100.95 % of respective basal and 83.39 % of respective basal and 95.38 % of respective basal and 149.36 % of respective basal and 104.86 % of respective basal; in assay [1] (T1 h 30-T2 h), 89.77 % of respective basal and 59.14 % of respective basal and 96.89 % of respective basal and 103.49 % of respective basal and 82.49 % of respective basal and 54.42 % of respective basal and 95.23 % of respective basal and 103.32 % of respective basal; in assay [1] (T1 h-T1 h 30) it was 90.43 % of respective basal and 68.90 % of respective basal and 103.82 % of respective basal and 116.53 % of respective basal and 80.54 % of respective basal and 85.72 % of respective basal and 305.74 % of respective basal and 115.15 % of respective basal; in assay [1] (T2 h 30-T3 h) it was 72.76 % of respective basal and 59.51 % of respective basal and 90.20 % of respective basal and 316.58 % of respective basal and 70.98 % of respective basal and 94.71 % of respective basal and 54.48 % of respective basal and 104.42 % of respective basal.
